“And” between values parts separate entries of the source, which are not always exact repeats. Equal values may be shown once. Read-outs that look alike come from different tables or passages of the source.
What was measured:
L929 fibroblasts = experiment: Mammalian cell cytotoxicity screening, resazurin viability; assay type: cell-based, mouse
S. aureus ATCC 6538 = experiment: Antimicrobial activity, broth microdilution MIC/MBC; assay type: cell-based, Staphylococcus aureus; settings: nd—not detected; for MIC (%): S. aureus ATCC 6538, 24 h at 37 °C, at least 90% growth inhibition
E. coli ATCC 8739 = experiment: as above; assay type: cell-based, Escherichia coli; settings: nd—not detected; for MIC (%): E. coli ATCC 8739, 24 h at 37 °C, at least 90% growth inhibition; for MBC (%): E. coli ATCC 8739
C. albicans ATCC 10231 = experiment: as above; assay type: cell-based, Candida albicans; settings: nd—not detected; for MIC (%): C. albicans ATCC 10231, 24 h at 37 °C, at least 90% growth inhibition
[1] = tested on: Lepidium sativum L. seeds; settings: 24 h incubation, mean(±SD), n = 3
[2] = tested on: Lepidium sativum L. roots; settings: 24 h incubation, mean(±SD), n = 3
[3] = 0.01% (w/w) compound in the medium
[4] = 0.03% (w/w) compound in the medium
[5] = 0.05% (w/w) compound in the medium
[6] = 0.10% (w/w) compound in the medium
[7] = 0.30% (w/w) compound in the medium
[8] = 0.50% (w/w) compound in the medium
[9] = 1.00% (w/w) compound in the medium
[10] = 2.00% (w/w) compound in the medium
[11] = 3.00% (w/w) compound in the medium
[12] = 4.00% (w/w) compound in the medium
[13] = 5.00% (w/w) compound in the medium

Structure (SMILES) | MIC (%) (E. coli ATCC 8739) | MIC (%) (C. albicans ATCC 10231) | Inhibition of the Lepidium sativum seeds germination (ISG, %) [1, 3] | Inhibition of the Lepidium sativum seeds germination (ISG, %) [1, 4] | Inhibition of the Lepidium sativum seeds germination (ISG, %) [1, 5] | Inhibition of the Lepidium sativum seeds germination (ISG, %) [1, 6] | Inhibition of the Lepidium sativum seeds germination (ISG, %) [1, 7] | Inhibition of the Lepidium sativum seeds germination (ISG, %) [1, 8] | Inhibition of the Lepidium sativum seeds germination (ISG, %) [1, 9] | Inhibition of the Lepidium sativum seeds germination (ISG, %) [1, 10] | Inhibition of the Lepidium sativum seeds germination (ISG, %) [1, 12] | Inhibition of the root growth in pregerminated Lepidium sativum seeds (IRG, %) [2, 3] | Inhibition of the root growth in pregerminated Lepidium sativum seeds (IRG, %) [2, 4] | Inhibition of the root growth in pregerminated Lepidium sativum seeds (IRG, %) [2, 5] | Inhibition of the root growth in pregerminated Lepidium sativum seeds (IRG, %) [2, 6] | Inhibition of the root growth in pregerminated Lepidium sativum seeds (IRG, %) [2, 7] | Inhibition of the root growth in pregerminated Lepidium sativum seeds (IRG, %) [2, 8] | Inhibition of the root growth in pregerminated Lepidium sativum seeds (IRG, %) [2, 10] | Inhibition of the root growth in pregerminated Lepidium sativum seeds (IRG, %) [2, 11] | Inhibition of the root growth in pregerminated Lepidium sativum seeds (IRG, %) [2, 12] | further results
CC(N)C(=O)O.OCCN(CCO)CCO [[TEA][Ala]] | 3.75 | 1.88 | 0.0(±1.2) % | 0.0(±0.8) % | 0.0(±1.2) % | 0.0(±0.8) % | 0.0(±0.5) % | 9.4(±1.4) % | 11.8(±1.6) % | 17.7(±0.8) % | 88.3(±1.3) % | 0.0(±0.0) % | 0.0(±0.0) % | 14.8(±1.5) % | 19.7(±1.4) % | 27.9(±1.2) % | 36.1(±1.2) % | 67.2(±1.0) % | 77.6(±0.6) % | 79.3(±0.6) % | ED20 (L929 fibroblasts; 24h exposure): 0.54±0.06%; ED50 (L929 fibroblasts; 24h exposure): 0.57±0.04%; ED80 (L929 fibroblasts; 24h exposure): 0.59±0.11%; ED20 (L929 fibroblasts; 48h exposure): 0.25±0.03%; ED50 (L929 fibroblasts; 48h exposure): 0.42±0.02%; ED80 (L929 fibroblasts; 48h exposure): 0.63±0.03%; MIC (%) (S. aureus ATCC 6538): 7.50%; MBC (%) (E. coli ATCC 8739): 7.50%; Inhibition of the Lepidium sativum seeds germination (ISG, %) [1, 11]: 64.7(±0.8) %; Inhibition of the Lepidium sativum seeds germination (ISG, %) [1, 13]: 100.0(±0.5) %; Inhibition of the root growth in pregerminated Lepidium sativum seeds (IRG, %) [2, 9]: 55.2(±0.8) %; Inhibition of the root growth in pregerminated Lepidium sativum seeds (IRG, %) [2, 13]: 89.7(±0.5) %
N=C(N)NCCC[C@H](N)C(=O)O.OCCN(CCO)CCO [[TEA][Arg]] | 3.75 | 0.94 | 0.0(±0.0) % | 0.0(±0.0) % | 0.0(±0.0) % | 0.0(±0.0) % | 1.2(±0.8) % | 5.5(±0.5) % | 15.5(±0.5) % | 25.5(±2.1) % | 58.2(±1.2) % | 9.0(±1.9) % | 20.6(±1.8) % | 31.2(±1.9) % | 41.9(±1.3) % | 53.8(±1.3) % | 56.5(±1.4) % | 74.4(±0.7) % | 84.7(±0.6) % | 93.7(±0.5) % | MIC (%) (S. aureus ATCC 6538): 3.75%; MBC (%) (S. aureus ATCC 6538; S. aureus ATCC 6538): 3.75%; MBC (%) (E. coli ATCC 8739): 3.75%; Inhibition of the Lepidium sativum seeds germination (ISG, %) [1, 11]: 32.7%; Inhibition of the root growth in pregerminated Lepidium sativum seeds (IRG, %) [2, 9]: 65.4(±1.0) %; Inhibition of the root growth in pregerminated Lepidium sativum seeds (IRG, %) [2, 13]: 98.3(±0.3) %
N[C@@H](CC(=O)O)C(=O)O.OCCN(CCO)CCO [[TEA][Asp]] | 7.50 | 15 | 0.0(±0.0) % | 0.0(±0.0) % | 0.0(±0.0) % | 0.0(±0.0) % | 0.0(±0.0) % | 0.0(±0.0) % | 0.0(±0.0) % | 0.0(±0.0) % | 16.2(±1.3) % | 0.0(±0.0) % and 0% | 0.0(±0.0) % and 0% | 0.0(±0.0) % and 0% | 0.0(±0.0) % and 0% | 9.1% | 12.9% | 43.9(±1.3) % | 44.2(±1.0) % | 56.3(±1.0) % | ED20 (L929 fibroblasts; 24h exposure): 0.47±0.03%; ED50 (L929 fibroblasts; 24h exposure): 0.66±0.03%; ED80 (L929 fibroblasts; 24h exposure): 0.86±0.09%; ED20 (L929 fibroblasts; 48h exposure): 0.30±0.02%; ED50 (L929 fibroblasts; 48h exposure): 0.50±0.01%; ED80 (L929 fibroblasts; 48h exposure): 0.71±0.01%; MIC (%) (S. aureus ATCC 6538): 15%; MBC (%) (E. coli ATCC 8739): 15%; MBC (%) (C. albicans ATCC 10231; C. albicans ATCC 10231): 15%; Inhibition of the Lepidium sativum seeds germination (ISG, %) [1, 11]: 3.5%; Inhibition of the root growth in pregerminated Lepidium sativum seeds (IRG, %) [2, 13]: 68.3%
NC(CCC(=O)O)C(=O)O.OCCN(CCO)CCO (centres unmarked) [[TEA][Glu]] | 7.50 | 15 | 0.0(±0.0) % | 0.0(±0.0) % | 1.8(±0.5) % | 3.6(±0.8) % | 5.4(±1.3) % | 8.9(±0.8) % | 10.7(±1.3) % | 10.7(±1.3) % | 21.4(±0.5) % | 0.0(±0.0) % and 0% | 0.0(±0.0) % and 0% | 4.0(±2.4) % | 4.9(±2.7) % | 5.8% | 21% | 44.5(±1.8) % | 61.4(±1.0) % | 79.4(±0.8) % | MIC (%) (S. aureus ATCC 6538): 15%; MBC (%) (E. coli ATCC 8739): 15%; Inhibition of the Lepidium sativum seeds germination (ISG, %) [1, 11]: 14.3%; Inhibition of the Lepidium sativum seeds germination (ISG, %) [1, 13]: 33.9%; Inhibition of the root growth in pregerminated Lepidium sativum seeds (IRG, %) [2, 9]: 36.3(±2.2) %; Inhibition of the root growth in pregerminated Lepidium sativum seeds (IRG, %) [2, 13]: 82.4(±0.5) %
CC(O)C(N)C(=O)O.OCCN(CCO)CCO [[TEA][Thr]] | 7.50 | 3.75 | 0.0(±0.0) % | 3.8(±0.1) % | 6.7(±0.8) % | 11.3(±1.7) % | 15.1(±0.8) % | 16.8(±0.9) % | 18.9(±1.7) % | 21.7(±0.8) % | 45.3(±2.1) % | 0.0(±0.0) % | 17.7(±2.3) % | 19.7(±2.4) % | 21.8(±1.9) % | 37.8% | 66.6(±1.3) % | 80.3(±0.9) % | 88.0(±0.8) % | 92.7(±0.6) % | ED20 (L929 fibroblasts; 24h exposure): 0.40±0.09%; ED50 (L929 fibroblasts; 24h exposure): 0.57±0.03%; ED80 (L929 fibroblasts; 24h exposure): 0.73±0.14%; ED20 (L929 fibroblasts; 48h exposure): 0.26±0.03%; ED50 (L929 fibroblasts; 48h exposure): 0.38±0.02%; ED80 (L929 fibroblasts; 48h exposure): 0.50±0.03%; Inhibition of the root growth in pregerminated Lepidium sativum seeds (IRG, %) [2, 9]: 73.7(±1.0) %; Inhibition of the root growth in pregerminated Lepidium sativum seeds (IRG, %) [2, 13]: 96.2(±0.5) %
